Source: patent publication US12144864B2, “Tubulysins and protein-tubulysin conjugates” (Regeneron Pharmaceuticals, Inc., priority 2018, dated 2024)
Read-outs that look alike come from different tables or passages of the source.

Columns and labels:
[1] = test system: C4-2 cells; assay: Cell-based killing assay of payloads (CellTiter-Glo), C4-2 cells; set-up: species or system human; details: 5-day incubation; for IC50: Homo sapiens, C4-2, 120 h, average ± SD where replicates; for C4-2 % Kill: at maximum concentration tested (100 − % viable cells)
How it was run: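 Viability readout is CellTiter-Glo luminescence after a 5-day exposure to 10-point, threefold-diluted payloads spanning 100 nM–[…], following overnight attachment of 4000 cells/well. Four-parameter logistic fit gives IC50 in M; % kill taken at highest concentration tested.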

[2] = test system: HCT15 cells; assay: cells; assay type: cell-based, human; details: HCT15 cells; for HCT-15 + verapamil % Kill / HCT-15 % Kill: maximum % cell killing
How it was run: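 Five-day exposure of 1000 HCT15 cells/well to threefold payload dilutions, run both plus and minus verapamil (5 ug/mL) in RPMI with 10% FBS. ATP luminescence (CellTiter-Glo) gives viability; four-parameter logistic fit of 10 points yields IC50, and 100 − % viable at highest dose gives % kill.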

[3] = test system: HL60/MX2 cells; assay: Cytotoxicity in panel of MDR cell lines, HL60/MX2 (72 h and 144 h); assay type: cell-based, human; details: for IC50: Homo sapiens
Method: (§1) To test the ability of the disclosed tubulysin payloads to kill human cell lines, an in vitro cytotoxicity assay was performed. In vitro cytotoxicity of the disclosed payloads, as well as reference compounds, were evaluated using the CellTiter-Glo Assay Kit (Promega, Cat #G7573), in which the quantity of ATP present is used to determine the number of viable cells in culture. For the assay, C4-2, HEK293, or T47D cells were seeded at 4000 cells/well on Nunclon white 96-well plates in complete growth medium (DME high glucose:Ham's F12 at 4:1, 10% FBS, 100 units/ml Penicillin, 100 ug/ml streptomycin, 53 ug/ml glutatmine, 10 ug/ml insulin, 220 ng/ml biotin, 12.5 pg/ml T3, 12.5 ug/ml Adenine, 4 ug/ml transferrin for C42 cells; DME high glucose, 10% FBS, 100 units/ml Penicillin, 100 ug/ml streptomycin, 53 ug/ml glutatmine for HEK293; RPMI, 10% FBS, 100 units/ml Penicillin, 100 ug/ml streptomycin, 53 ug/ml glutatmine, 10 ug/ml insulin, 10 mM HEPEs, 200 nM Sodium Pyruvate for T47D cells) and grown overnight at 37° C. in 5% CO2. For cell viability curves, 1:3 serially diluted payloads were added to the cells at final concentrations ranging from 100 nM to […], including a no treatment control group, and were then incubated for 5 days. After the 5-day incubation, cells were incubated at room temperature with 100 μL of CellTiter-Glo reagents for 10 minutes. Relative luminescence units (RLU) were determined on a Victor plate reader (PerkinElmer). The IC50 values were determined from a four-parameter logistic equation over a 10-point response curve (GraphPad Prism). All IC50 values are expressed in molar (M) concentration. The percent cell killing (% kill) at the maximum concentration tested was estimated from the following formula (100−% viable cells). Averages±standard deviation (SD) are included where replicate experiments were performed.
(§2) To further test the ability of the disclosed tubulysin payloads, a cytotoxicity assay was performed using a panel of multidrug resistant (MDR) cell lines. In vitro cytotoxicity of the disclosed payloads as well as reference compounds were similarly evaluated as described above except using HCT-15 cells, a colorectal carcinoma cell line; H69AR, a doxorubicin resistant MDR derivative of the small cell lung cancer carcinoma cell line NCI-H69; MES-SA/MX2, a mitoxantrone resistant MDR derivative of the uterine sarcoma cell line MES-SA; and HL60/MX2, a mitoxantrone resistant MDR derivative of the acute promyelocytic leukemia cell line HL60. In these assays, cytotoxicity was evaluated in normal growth media (RPMI, 10% FBS, 100 units/ml Penicillin, 100 ug/ml streptomycin, and 53 ug/ml glutatmine for HCT-15 and HL60/MX2; RPMI, 20% FBS, 100 units/ml Penicillin, 100 ug/ml streptomycin, and 53 ug/ml glutatmine for H69-AR; Waymouths's:McCoy's (1:1), 10% FBS, 100 units/ml Penicillin, 100 ug/ml streptomycin, and 53 ug/ml glutatmine for MES-SA/MX2) with 1000 cells per well following 72 h and 144 h incubation with payloads.

[4] = test system: MES-SA/MX2 cells; assay: Cytotoxicity in panel of MDR cell lines, MES-SA/MX2 (72 h and 144 h); assay type: cell-based, human; details: for IC50: Homo sapiens
Method: as §1, §2

[5] = test system: HCT-15 cells; assay: Cytotoxicity in panel of MDR cell lines, HCT-15 (72 h and 144 h); assay type: cell-based, human; details: for IC50: Homo sapiens
How it was run: (§3)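 Luminescent ATP readout (CellTiter-Glo) quantified viable cells after 72 h or 144 h exposure to 1:3 serial payload dilutions. Cells plated at 1000/well in their normal growth media. IC50 in M from a four-parameter logistic fit; % kill at top concentration taken as 100 − % viable.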

[6] = test system: H69AR cells; assay: Cytotoxicity in panel of MDR cell lines, H69AR (72 h and 144 h); assay type: cell-based, human; details: for IC50: Homo sapiens
How it was run: as §3

[7] = with 5 ug/mL Verapamil, read-out: HCT-15 + verapamil IC50
[8] = Homo sapiens, HCT-15, without Verapamil, read-out: HCT-15 IC50
[9] = 72 h incubation, read-out: HL60/MX2 IC50 72 h
[10] = 144 h incubation, read-out: HL60/MX2 IC50 144 h
[11] = 72 h incubation, read-out: MES-SA/MX2 IC50 72 h
[12] = 144 h incubation, read-out: MES-SA/MX2 IC50 144 h
[13] = 72 h incubation, read-out: HCT-15 IC50 72 h
[14] = 144 h incubation, read-out: HCT-15 IC50 144 h
[15] = 72 h incubation, read-out: H69AR IC50 72 h
[16] = 144 h incubation, read-out: H69AR IC50 144 h

## CCCCCON(C(=O)[C@@H](NC(=O)[C@H]1CCCCN1C)[C@@H](C)CC)[C@H](C[C@@H](OC(=O)NC)c1nc(C(=O)N[C@@H](Cc2ccc(N)cc2)CC(C)(C)C(=O)O)cs1)C(C)C [VIh, (S)-5-(4-Aminophenyl)-4-(2-((5R,7R)-7-isopropyl-8-((2S,3S)-3-methyl-2-((R)-1-methylpiperidine-2-carboxamido)pentanoyl)-3-oxo-4,9-dioxa-2,8-diazatetradecan-5-yl)thiazole-4-carboxamido)-2,2-dimethylpentanoic acid]
[1]
  IC50: 0.159 nM
  C4-2 % Kill: 93.9%
[2]; with 5 ug/mL Verapamil
  HCT-15 + verapamil % Kill: 97.8%
[2]; [7]
  IC50: 0.0716 nM
[2]; without Verapamil
  HCT-15 % Kill: 99%
[2]; [8]
  IC50: 0.263 nM
[3]; 72 h incubation
  HL60/MX2 % Kill 72 h: 97.6%
[3]; 144 h incubation
  HL60/MX2 % Kill 144 h: 99.9%
[3]; [9]
  IC50: 0.0391 nM
[3]; [10]
  IC50: < 0.015 nM
[4]; 72 h incubation
  MES-SA/MX2 % Kill 72 h: 98.5%
[4]; 144 h incubation
  MES-SA/MX2 % Kill 144 h: 99.8%
[4]; [11]
  IC50: 1.26 nM
[4]; [12]
  IC50: 2.72 nM
[5]; 72 h incubation
  HCT-15 % Kill 72 h: 97.9%
[5]; 144 h incubation
  HCT-15 % Kill 144 h: 99.7%
[5]; [13]
  IC50: 0.366 nM
[5]; [14]
  IC50: 0.515 nM
[6]; 72 h incubation
  H69AR % Kill 72 h: 96.3%
[6]; 144 h incubation
  H69AR % Kill 144 h: 99.1%
[6]; [15]
  IC50: 1.07 nM
[6]; [16]
  IC50: 1.73 nM

## CC[C@H](C)[C@H](NC(=O)[C@H]1CCCCN1C)C(=O)N(CCCCc1cn(-c2ccccc2)nn1)[C@H](C[C@@H](OC(C)=O)c1nc(C(=O)N[C@@H](Cc2ccc(N)cc2)CC(C)(C)C(=O)O)cs1)C(C)C [IVp, (S)-4-(2-((1R,3R)-1-acetoxy-4-methyl-3-((2S,3S)-3-methyl-2-((R)-1-methylpiperidine-2-carboxamido)-N-(4-(1-phenyl-1H-1,2,3-triazol-4-yl)butyl)pentanamido)pentyl)thiazole-4-carboxamido)-5-(4-aminophenyl)-2,2-dimethylpentanoic acid]
[1]
  IC50: 0.177 nM
  C4-2 % Kill: 94.2%
[2]; with 5 ug/mL Verapamil
  HCT-15 + verapamil % Kill: 97.6%
[2]; [7]
  IC50: 0.0864 nM
[2]; without Verapamil
  HCT-15 % Kill: 98.7%
[2]; [8]
  IC50: 0.239 nM
[3]; 72 h incubation
  HL60/MX2 % Kill 72 h: 97.5%
[3]; 144 h incubation
  HL60/MX2 % Kill 144 h: 99.9%
[3]; [9]
  IC50: 0.0237 nM
[3]; [10]
  IC50: < 0.015 nM
[4]; 72 h incubation
  MES-SA/MX2 % Kill 72 h: 98.8%
[4]; 144 h incubation
  MES-SA/MX2 % Kill 144 h: 99.9%
[4]; [11]
  IC50: 0.792 nM
[4]; [12]
  IC50: 1.66 nM
[5]; 72 h incubation
  HCT-15 % Kill 72 h: 97.6%
[5]; 144 h incubation
  HCT-15 % Kill 144 h: 99.7%
[5]; [13]
  IC50: 0.181 nM
[5]; [14]
  IC50: 0.231 nM
[6]; 72 h incubation
  H69AR % Kill 72 h: 96.3%
[6]; 144 h incubation
  H69AR % Kill 144 h: 99.2%
[6]; [15]
  IC50: 0.644 nM
[6]; [16]
  IC50: 1.12 nM

## CC[C@H](C)[C@H](NC(=O)[C@H]1CCCCN1C)C(=O)N(CCCCc1cn(Cc2ccccc2)nn1)[C@H](C[C@@H](OC(C)=O)c1nc(C(=O)N[C@@H](Cc2ccc(N)cc2)CC(C)(C)C(=O)O)cs1)C(C)C [IVo, (S)-4-(2-((1R,3R)-1-Acetoxy-3-((2S,3S)—N-(4-(1-benzyl-1H-1,2,3-triazol-4-yl)butyl)-3-methyl-2-((R)-1-methylpiperidine-2-carboxamido)pentanamido)-4-methylpentyl)thiazole-4-carboxamido)-5-(4-aminophenyl)-2,2-dimethylpentanoic acid]
[1]
  IC50: 0.262 nM
  C4-2 % Kill: 93.4%
[2]; with 5 ug/mL Verapamil
  HCT-15 + verapamil % Kill: 97.6%
[2]; [7]
  IC50: 0.109 nM
[2]; without Verapamil
  HCT-15 % Kill: 98.6%
[2]; [8]
  IC50: 0.37 nM
[3]; 72 h incubation
  HL60/MX2 % Kill 72 h: 98.1%
[3]; 144 h incubation
  HL60/MX2 % Kill 144 h: 100%
[3]; [9]
  IC50: 0.0376 nM
[3]; [10]
  IC50: < 0.015 nM
[4]; 72 h incubation
  MES-SA/MX2 % Kill 72 h: 98.9%
[4]; 144 h incubation
  MES-SA/MX2 % Kill 144 h: 99.9%
[4]; [11]
  IC50: 1.12 nM
[4]; [12]
  IC50: 2.96 nM
[5]; 72 h incubation
  HCT-15 % Kill 72 h: 97.3%
[5]; 144 h incubation
  HCT-15 % Kill 144 h: 99.7%
[5]; [13]
  IC50: 0.247 nM
[5]; [14]
  IC50: 0.348 nM
[6]; 72 h incubation
  H69AR % Kill 72 h: 96.2%
[6]; 144 h incubation
  H69AR % Kill 144 h: 99.1%
[6]; [15]
  IC50: 0.779 nM
[6]; [16]
  IC50: 1.27 nM

## [2H]c1cc(C[C@@H](CC(C)(C)C(=O)O)NC(=O)c2csc([C@@H](C[C@H](C(C)C)N(CCCCCC)C(=O)[C@@H](NC(=O)[C@H]3CCCCN3C)[C@@H](C)CC)OC(C)=O)n2)cc([2H])c1N [IVs, (S)-4-(2-((1R,3R)-1-Acetoxy-3-((2S,3S)—N-hexyl-3-methyl-2-((R)-1-methylpiperidine-2-carboxamido)pentanamido)-4-methylpentyl)thiazole-4-carboxamido)-5-(4-aminophenyl-3,5-d2)-2,2-dimethylpentanoic acid]
[1]
  IC50: 0.0499 nM
  C4-2 % Kill: 93.8%
[2]; with 5 ug/mL Verapamil
  HCT-15 + verapamil % Kill: 98.8%
[2]; [7]
  IC50: 0.0459 nM
[2]; without Verapamil
  HCT-15 % Kill: 99.1%
[2]; [8]
  IC50: 0.108 nM
[3]; 72 h incubation
  HL60/MX2 % Kill 72 h: 98.4%
[3]; 144 h incubation
  HL60/MX2 % Kill 144 h: 100%
[3]; [9]
  IC50: < 0.015 nM
[3]; [10]
  IC50: < 0.015 nM
[4]; 72 h incubation
  MES-SA/MX2 % Kill 72 h: 99.2%
[4]; 144 h incubation
  MES-SA/MX2 % Kill 144 h: 100%
[4]; [11]
  IC50: 0.102 nM
[4]; [12]
  IC50: 0.21 nM
[5]; 72 h incubation
  HCT-15 % Kill 72 h: 97.6%
[5]; 144 h incubation
  HCT-15 % Kill 144 h: 99.7%
[5]; [13]
  IC50: 0.0371 nM
[5]; [14]
  IC50: 0.0501 nM
[6]; 72 h incubation
  H69AR % Kill 72 h: 96.8%
[6]; 144 h incubation
  H69AR % Kill 144 h: 99.4%
[6]; [15]
  IC50: 0.161 nM
[6]; [16]
  IC50: 0.281 nM
